In US20140023611A1 (priority 2010, published 2014):
Several values for one entry are separate records, joined by “and”; a condition that tells them apart may be missing. Equal values may be shown once. Where a name gives a salt, the structure may show the parent alone.

Experiments:
[1] = Fecal recovery of orally administered compounds; assay type: in vivo, Sprague-Dawley rats; conditions: Structure (I) examples, Table 16; rat, oral gavage, feces collected until 48 hr after dosing
Method in brief: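 After oral dosing, feces collected in metabolic cages up to 48 h, lyophilized and ground. Duplicate weighed portions per animal extracted with organic solvent under non-compound-optimized conditions, so recovery may be a minimal estimate.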

[2] = Stability of compounds in simulated gastric fluid (SGF); assay type: in vitro ADME; conditions: simulated gastric fluid (3 mg/mL pepsin), incubation time 6 hr, relative to t=0
Method in brief: (§1)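 Compounds at […] were incubated 3 or 6 hr in USP simulated gastric fluid with 3 mg/mL pepsin or simulated intestinal fluid with 3 mg/mL pancreatin. Remaining compound was quantified by HPLC-UV or HPLC-MS peak area % and reported as percent of the t=0 level in the same medium.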

[3] = test system: Uptake of Phosphorus from the Intestine; experiment: In vivo co-dosing in chow (urine P out / P consumed); conditions: Rattus norvegicus, feed or water, rats, compound in chow, read-out: Mean % inhibition Urine Pout/P consumed; for inhibition in vivo at 120 mg/kg/day: mean drug dose 120 mg/kg/day; for inhibition in vivo at 100 mg/kg/day: mean drug dose 100 mg/kg/day
Method in brief: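 Male 7-week-old rats were fed a synthetic diet (0.6% P, 0.6% Ca) for 4 days, then housed in metabolic cages with compound in chow at 1.3 mg/g (nominal 100 mg/kg/day). Urinary P was measured by ion chromatography over 24–96 h and related to dietary P consumed. Percentage inhibition was calculated against no-drug controls.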

[4] = Stability of compounds in simulated intestinal fluid (SIF); assay type: in vitro ADME; conditions: simulated intestinal fluid (3 mg/mL pancreatin), incubation time 6 hr, relative to t=0
Method in brief: as §1

[5] = molecular target: T1, rat NaP2b (SLC34A2) (Rattus norvegicus, UniProt Q9JJ09); experiment: Inhibition of NaP2b-mediated Pi (33P) uptake in transfected HEK293 cells, rat NaP2b; assay type: cell-based; conditions: 33P Pi uptake, 0.1 mM phosphate, value given as pIC50 range
T1 construct: host or cells: HEK293
T1 sequence (Q9JJ09 1-695): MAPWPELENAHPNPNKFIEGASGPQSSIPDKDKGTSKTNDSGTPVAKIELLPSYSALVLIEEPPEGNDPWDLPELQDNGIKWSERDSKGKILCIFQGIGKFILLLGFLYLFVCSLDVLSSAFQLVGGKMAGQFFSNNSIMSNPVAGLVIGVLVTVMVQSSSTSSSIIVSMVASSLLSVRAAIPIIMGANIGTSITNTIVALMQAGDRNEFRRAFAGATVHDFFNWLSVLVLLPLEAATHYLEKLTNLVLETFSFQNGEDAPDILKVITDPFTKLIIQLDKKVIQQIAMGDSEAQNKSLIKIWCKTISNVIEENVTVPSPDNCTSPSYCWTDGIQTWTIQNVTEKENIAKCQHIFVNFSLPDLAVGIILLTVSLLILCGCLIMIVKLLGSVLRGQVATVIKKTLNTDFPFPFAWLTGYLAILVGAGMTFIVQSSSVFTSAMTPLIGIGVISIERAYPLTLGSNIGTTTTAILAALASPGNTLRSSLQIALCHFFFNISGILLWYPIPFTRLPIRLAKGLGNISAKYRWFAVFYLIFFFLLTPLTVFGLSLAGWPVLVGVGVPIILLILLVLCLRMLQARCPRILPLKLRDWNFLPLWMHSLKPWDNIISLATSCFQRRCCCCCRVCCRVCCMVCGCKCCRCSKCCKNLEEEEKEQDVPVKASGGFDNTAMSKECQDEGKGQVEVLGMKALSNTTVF
Method in brief: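 HEK293 cells were transiently transfected with NaP2b cDNA using Lipofectamine and grown near confluence. Compounds were tested at twelve concentrations from 0.1 nM to 30 uM in duplicate, and 33P-phosphate uptake was counted by scintillation after lysis. Results are expressed as pIC50.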

| SMILES | % recovered in feces [1] | % remaining, SGF [2] | inhibition in vivo at 120 mg/kg/day [3] | % remaining, SIF [4] | IC50 [5] | inhibition in vivo at 100 mg/kg/day [3] | inhibition in vivo at 50 mg/kg/day ([3]; mean drug dose 50 mg/kg/day) | inhibition in vivo at 130 mg/kg/day ([3]; mean drug dose 130 mg/kg/day) |
| --- | --- | --- | --- | --- | --- | --- | --- | --- |
| CCN(CC)c1ccc(NC(=O)c2cccc(CSCCOCCOCCOCCOCCOCCOCCOCCOCCC(=O)O)c2)c(-c2cc(C(=O)NCc3cccc(C(F)(F)F)c3)ccn2)c1 [Example 166, 1-(3-(4-(diethylamino)-2-(4-(3-(trifluoromethyl)benzylcarbamoyl)pyridin-2-yl)phenylcarbamoyl)phenyl)-5,8,11,14,17,20,23,26-octaoxa-2-thianonacosan-29-oic acid] | >80% | >80% | 10 to 30% | >80% | 1000 to 7940 nM |  |  |  |
| O=C(O)CCOCCOCCOCCNC(=O)c1cccc2c1ccn2Cc1cccc(C(=O)Nc2ccc(N3CCCCC3)cc2-c2cc(C(=O)N[C@H]3CCCc4ccccc43)ccn2)c1 [Example 181, (S)-1-oxo-1-(1-(3-(4-(piperidin-1-yl)-2-(4-(1,2,3,4-tetrahydronaphthalen-1-ylcarbamoyl)pyridin-2-yl)phenylcarbamoyl)benzyl)-1H-indol-4-yl)-5,8,11-trioxa-2-azatetradecan-14-oic acid] | >80% | >80% | ≤ 10% | >80% | < 1000 nM |  |  |  |
| CCCN(CCC)c1ccc(NC(=O)c2cccc(COCCOCCOCCOCCOCCOCCOCCOCCOC)c2)c(-c2cc(C(=O)NCc3cccc(C(F)(F)F)c3)ccn2)c1 [Example 200, 2-(2-(3-(2,5,8,11,14,17,20,23,26-nonaoxaheptacosyl)benzamido)-5-(dipropylamino)phenyl)-N-(3-(trifluoromethyl)benzyl)isonicotinamide] | 20-80% | >80% |  | >80% | 1000 to 7940 nM | 10 to 30% |  |  |
| CCN(CC)c1ccc(NC(=O)c2cccc(CCCOCCOCCOCCOCCC(=O)O)c2)c(-c2cc(C(=O)NCc3cccc(C(F)(F)F)c3)ccn2)c1 [Example 251, 16-(3-(4-(diethylamino)-2-(4-(3-(trifluoromethyl)benzylcarbamoyl)pyridin-2-yl)phenylcarbamoyl)phenyl)-4,7,10,13-tetraoxahexadecan-1-oic acid] | >80% | >80% |  | >80% | 1000 to 7940 nM |  | ≤ 10% |  |
| CCN(CC)c1ccc(NC(=O)c2cccc(CCCOCCOCCOCCOCCOCCOCCOCCOCCOC)c2)c(-c2cc(C(=O)N[C@H]3CCCc4ccccc43)ccn2)c1 [Example 261, (S)-2-(2-(3-(2,5,8,11,14,17,20,23,26-nonaoxanonacosan-29-yl)benzamido)-5-(diethylamino)phenyl)-N-(1,2,3,4-tetrahydronaphthalen-1-yl)isonicotinamide] | <20% | >80% |  | 60-80% and >80% | < 1000 nM | 10 to 30% |  |  |
| CCN(CC)c1ccc(NC(=O)c2cccc(CSCCOCCOCCOCCOCCOCCOCCOCCOC)c2)c(-c2cc(C(=O)NCc3cccc(C(F)(F)F)c3)ccn2)c1 [Example 265, 2-(2-(3-(2,5,8,11,14,17,20,23-octaoxa-26-thiaheptacosan-27-yl)benzamido)-5-(diethylamino)phenyl)-N-(3-(trifluoromethyl)benzyl)isonicotinamide] | <20% | >80% | ≤ 10% | >80% | < 1000 nM |  |  |  |
| CCN(CC)c1ccc(NC(=O)c2cccc(CCCOCCOCCOCCOCCOCCOCCOCCOCCOC)c2)c(-c2cc(C(=O)NCc3cccc(C(F)(F)F)c3)ccn2)c1 [Example 269, 2-(2-(3-(2,5,8,11,14,17,20,23,26-nonaoxanonacosan-29-yl)benzamido)-5-(diethylamino)phenyl)-N-(3-(trifluoromethyl)benzyl)isonicotinamide] | <20% | >80% |  | >80% | 1000 to 7940 nM | ≤ 10% |  |  |
| CCN(CC)c1ccc(NC(=O)c2cccc(CSCCOCCOCCOCCOCCOCCOCCOCCOC)c2)c(-c2cc(C(=O)N[C@H]3CCCc4ccccc43)ccn2)c1 [Example 286, (S)-2-(2-(3-(2,5,8,11,14,17,20,23-octaoxa-26-thiaheptacosan-27-yl)benzamido)-5-(diethylamino)phenyl)-N-(1,2,3,4-tetrahydronaphthalen-1-yl)isonicotinamide] | <20% | >80% |  | >80% | < 1000 nM |  |  | 10 to 30% |
| CCN(CC)c1ccc(NC(=O)c2cccc(C(=O)N(C)CCN(CCOC)CCOCCOCCOCCOCCOCCOCCOC)c2)c(-c2cc(C(=O)NCc3cccc(C(F)(F)F)c3)ccn2)c1 [Example 335, N^1-(4-(Diethylamino)-2-(4-(3-(trifluoromethyl)benzylcarbamoyl)pyridin-2-yl)phenyl)-N^3-(23-(2-methoxyethyl)-2,5,8,11,14,17,20-heptaoxa-23-azapentacosan-25-yl)-N^3-methylisophthalamide, trifluoroacetate] | >80% | >80% |  | >80% | 1000 to 7940 nM | ≤ 10% |  |  |
